According to ChEMBL document CHEMBL5385943, “Synthesis, biological evaluation and molecular docking study of pyrimidine linked thiazolidinedione derivatives as potential antimicrobial and antitubercular agents” (Bioorg Med Chem Lett, 2024):
Values after ≈ are worked out from the molar mass of the structure shown. Active and inactive are the calls of the source. The calls are words filed in the database; no cut-off is given here.

Experiments:
Escherichia coli [1] = test: Antimicrobial activity against Escherichia coli assessed as reduction in microbial growth; type: functional
[2] = test system: Mycobacterium tuberculosis; test: Antitubercular activity against Mycobacterium tuberculosis H37Rv by agar dilution method; type: functional
Staphylococcus aureus [3] = test: Antimicrobial activity against Staphylococcus aureus assessed as reduction in microbial growth; type: functional
Bacillus subtilis = test: Antimicrobial activity against Bacillus subtilis assessed as reduction in microbial growth; type: functional
Candida albicans = test: Antimicrobial activity against Candida albicans assessed as reduction in microbial growth; type: functional
[4] = Cytotoxicity against human WI-38 cells assessed as reduction in cell growth; type: toxicity, cell-based
Staphylococcus aureus [5] = test: Antimicrobial activity against methicillin-resistant Staphylococcus aureus assessed as reduction in microbial growth; type: functional
[6] = Selectivity index, ratio of CC50 for human WI-38 cells to MIC for Mycobacterium tuberculosis H37Rv; type: toxicity; settings: read-out: Selectivity Index
Staphylococcus aureus [7] = test: Antibacterial activity against methicillin resistant Staphylococcus aureus at 1 times MIC measured after 150 mins by time kill assay; type: functional, organism-based
Staphylococcus aureus [8] = test: Antibacterial activity against methicillin resistant Staphylococcus aureus at 1 times MIC measured after 120 to 150 mins by time kill assay; type: functional, organism-based; settings: time 120-150 min
Escherichia coli [9] = test: Antibacterial activity against Escherichia coli at 1 times MIC measured after 120 to 150 mins by time kill assay; type: functional, organism-based; settings: time 120-150 min
Escherichia coli [10] = test: Antibacterial activity against Escherichia coli at 1 times MIC measured after 150 mins by time kill assay; type: functional, organism-based
Staphylococcus aureus [11] = test: Antibacterial activity against methicillin resistant Staphylococcus aureus at 1 times MIC measured after 180 mins by time kill assay; type: functional, organism-based

Compound | MIC (Escherichia coli [1]) [µM] | MIC [2] [µM] | MIC (Staphylococcus aureus [3]) [µM] | MIC (Bacillus subtilis) [µM] | MIC (Candida albicans) [µM] | CC50 [4] [µM] | MIC (Staphylococcus aureus [5]) [µM] | selectivity ratio [6] | Activity (Staphylococcus aureus [7]) | Activity (Staphylococcus aureus [8]) | Activity (Escherichia coli [9]) | Activity (Escherichia coli [10]) | Activity (Staphylococcus aureus [11])
O=C1S/C(=C\c2cnc(C(F)(F)F)nc2)C(=O)N1C(=O)c1ccc(Br)cc1 | 22.6 | 6.12 (≈ 2.8 µg/mL) | 20.7 | 17.3 | 4.7 | > 50 | 48.2 | 8.17 |  |  |  |  | 
O=C1S/C(=C\c2cnc(C(F)(F)F)nc2)C(=O)N1C(=O)c1cc(F)cc(F)c1 | 11.2 | 0.71 (≈ 0.295 µg/mL) | 10.3 | 9.7 | 11.8 | > 50 | 21.9 | 70.4 |  |  |  |  | 
OC(Cn1cncn1)(Cn1cncn1)c1ccc(F)cc1F [FLUCONAZOLE] |  |  |  |  | 14.9 |  |  |  |  |  |  |  | 
Cc1ccc(C(=O)N2C(=O)S/C(=C\c3cnc(C(F)(F)F)nc3)C2=O)cc1 | 35.8 | 8.49 (≈ 3.34 µg/mL) | 30.6 | 24.9 | 41.3 | > 50 | 71.8 | 5.89 |  |  |  |  | 
CN[C@@H]1[C@H](O[C@H]2[C@H](O[C@H]3[C@H](O)[C@@H](O)[C@H](N=C(N)N)[C@@H](O)[C@@H]3N=C(N)N)O[C@@H](C)[C@]2(O)C=O)O[C@@H](CO)[C@H](O)[C@H]1O [STREPTOMYCIN] | 14.3 |  | 11.9 | 11.5 |  |  |  |  |  |  |  |  | 
GENTAMICIN |  |  |  |  |  |  |  |  | inactive |  |  |  | 
O=C1S/C(=C\c2cnc(C(F)(F)F)nc2)C(=O)N1C(=O)c1ccc(O)cc1 | 40.9 | 10.9 (≈ 4.31 µg/mL) | 37.4 | 28.3 | 53.7 | > 50 | 79.2 | 4.58 |  |  |  |  | 
O=C1S/C(=C\c2cnc(C(F)(F)F)nc2)C(=O)N1C(=O)c1ccc([N+](=O)[O-])cc1 | 11.7 | 1.06 (≈ 0.45 µg/mL) | 10.9 | 10.2 | 12.9 | > 50 | 24.1 | 47.2 |  |  |  |  | 
O=C1S/C(=C\c2cnc(C(F)(F)F)nc2)C(=O)N1C(=O)c1ccc(Cl)cc1 | 17.8 | 4.83 (≈ 2 µg/mL) | 16.8 | 14.4 | 19.4 | > 50 | 36.4 | 10.3 |  |  |  |  | 
O=C1S/C(=C\c2cnc(C(F)(F)F)nc2)C(=O)N1C(=O)c1ccc(C(F)(F)F)cc1 | 8.4 | 0.22 (≈ 0.0984 µg/mL) | 6.4 | 6.1 | 8.1 | > 50 | 10.8 | 227 |  | Active | Active |  | 
O=C1S/C(=C\c2cnc(C(F)(F)F)nc2)C(=O)N1C(=O)c1ccccc1 | 28.3 | 5.62 (≈ 2.13 µg/mL) | 27.1 | 19.5 | 30.6 | > 50 | 62.5 | 8.89 |  |  |  |  | 
O=C1S/C(=C\c2cnc(C(F)(F)F)nc2)C(=O)N1C(=O)c1ccc(F)cc1 | 15.1 | 3.25 (≈ 1.29 µg/mL) | 13.7 | 12.8 | 16.8 | > 50 | 31.7 | 15.4 |  |  |  |  | 
O=C1S/C(=C\c2cnc(C(F)(F)F)nc2)C(=O)N1C(=O)c1cc(F)c(F)c(F)c1 | 9.7 | 0.32 (≈ 0.139 µg/mL) | 8.6 | 8.1 | 9.5 | > 50 | 15.4 | 156 |  |  |  | Active | Active
CC(=O)NC[C@H]1CN(c2ccc(N3CCOCC3)c(F)c2)C(=O)O1 [LINEZOLID] |  |  |  |  |  |  | 23.1 |  |  |  |  |  | 
NNC(=O)c1ccncc1 [ISONIAZID] |  | 0.35 (≈ 0.048 µg/mL) |  |  |  | > 50 |  | 143 |  |  |  |  | 
